Usually IC50 stands for the concentration that gives 50% inhibition. High values mean weaker potency in that assay, low ones greater potency in that assay.

The values that follow come from ChEMBL document CHEMBL1125637, “Benzocycloalkyl amines as novel C-termini for HIV protease inhibitors” (J Med Chem, 1991).

The structures appear in SMILES notation.

This assay has as its target Human immunodeficiency virus type 1 protease (Human immunodeficiency virus 1, UniProt Q72874). Kind of assay: Inhibition of HIV protease. In kind it is functional.
Regarding `CC(C)(C)OC(=O)N[C@@H](Cc1ccccc1)[C@@H](O)C[C@@H](Cc1ccccc1)C(=O)NCCc1ccccc1`, the IC50 was 2800 nM.
The same measure for `CC(C)(C)OC(=O)N[C@@H](Cc1ccccc1)[C@@H](O)C[C@@H](Cc1ccccc1)C(=O)N[C@H]1c2ccccc2[C@@H](O)[C@H]1O`: 0.1 nM; for `CC(C)(C)OC(=O)N[C@@H](Cc1ccccc1)[C@@H](O)C[C@@H](Cc1ccccc1)C(=O)N[C@H]1c2ccccc2C[C@@H]1O` (stereo in doubt; 8): 259 nM.
The same measure for `CC(C)(C)OC(=O)N[C@@H](Cc1ccccc1)[C@@H](O)C[C@@H](Cc1ccccc1)C(=O)NC1Cc2ccccc21` (some centres not stated): 22 nM; for `CC(C)(C)OC(=O)N[C@@H](Cc1ccccc1)[C@@H](O)C[C@@H](Cc1ccccc1)C(=O)NC1c2ccccc2[C@@H](N)[C@H]1O` (some centres not stated): 1.9 nM.
For `CC(C)(C)OC(=O)N[C@@H](Cc1ccccc1)[C@@H](O)C[C@@H](Cc1ccccc1)C(=O)NC1c2ccccc2C[C@H]1C(N)=O` (some centres not stated) the value was 1.8 nM; for `CC(C)(C)OC(=O)N[C@@H](Cc1ccccc1)[C@@H](O)C[C@@H](Cc1ccccc1)C(=O)N[C@H]1c2ccccc2C[C@@H]1O` (stereo in doubt; 10), 229 nM.
Compound `CC(C)(C)OC(=O)N[C@@H](Cc1ccccc1)[C@@H](O)C[C@@H](Cc1ccccc1)C(=O)N[C@H]1c2ccccc2C[C@H]1O` yielded an IC50 of 0.3 nM.
Regarding `CC(C)(C)OC(=O)N[C@@H](Cc1ccccc1)[C@@H](O)C[C@@H](Cc1ccccc1)C(=O)NC1Cc2ccccc2C1`, the 50% inhibitory concentration (IC50) amounted to 130 nM.
The same measure for `CC(C)(C)OC(=O)N[C@@H](Cc1ccccc1)[C@@H](O)C[C@@H](Cc1ccccc1)C(=O)N[C@H]1CCc2ccccc21`: 21 nM; for `CC(C)(C)OC(=O)N[C@@H](Cc1ccccc1)[C@@H](O)C[C@@H](Cc1ccccc1)C(=O)N[C@@H]1CCc2ccccc21`: 19 nM; for `CC(C)(C)OC(=O)N[C@@H](Cc1ccccc1)[C@@H](O)C[C@@H](Cc1ccccc1)C(=O)NC1CCCc2ccccc21` (some centres not stated): 16 nM.
